From patent publication US10082498B2, “Methods for treating ADHD and bipolar disorder using a membrane potential ratio test” (PSYCHNOSTICS, LLC., priority 2013, dated 2018)
Counter-ions that a name gives are not always drawn.

How the values were obtained:
[1] = tested on: whole blood cells; assay: Membrane potential ratio (MPR) test on blood cells of patients under drug treatment; assay type: in vivo, human; details: for MPR value: Example 6, patient with ADHD
Experimental: The MPR™ test is used to diagnose BD and ADHD. Briefly, the MPR™ test involves measuring the membrane potential of the human cells in a test buffer and in a reference buffer and calculating the ratio of these membrane potentials.
Briefly, the membrane potentials of whole blood cells are measured using two different buffers in a plate reader. The mean MPR™ value is the ratio between the membrane potential of a patient's cells in the test buffer as the numerator and that in the reference buffer as the denominator determined by statistical analysis of multiple measurements, using the ANOVA and the multiple statistical regression analysis.
The membrane potential of a patient's cells may be ascertained by any conventional method, such as by examining the fluorescence intensity of a potential-sensitive lipophilic fluorescent dye. The membrane potential is directly proportional to the intensity of fluorescence according to the following equation: I=CV, wherein I is the fluorescence intensity of a lipophilic fluorescent dye, V is the voltage or membrane potential, and C is a constant that can vary depending on a number of factors such as, but not limited to, temperature, lamp intensity, number of cells, concentration of the fluorescent dye, incubation time, and lipid composition of cells used. The calibration and determination of the value for C can be a cumbersome and unreliable procedure. Thus, according to the present invention, by using the ratio of the fluorescence intensity (I1) of one sample of cells to the fluorescence intensity (I2) of another sample of cells, the constant (C) is canceled out. Such ratio-metric measurements are preferred over absolute measurements.
(§1) Certain patients from the outpatient private psychiatric practice were retested after widely varying intervals as shown in the following Examples. Participation was completely voluntary and only allowed after the signing of a consent form. For the purpose of maintaining the privacy of the subject the lab work was performed confidentially (called blinding of the tester). Each patient was assigned an identification (ID) number and only the clinician had access to the key which correlated ID numbers with patient names.

[2] = tested on: human patient with BD or ADHD; assay: Clinical response of outpatient psychiatric patients to medication (clinical vignettes); assay type: in vivo; details: for Clinical stabilization of Bipolar I Disorder: Example 4, person, combination: aripiperazole, citalopram, oxcarbazepine and alprazolam
Experimental: as §1

[3] = tested on: human patient with ADHD; assay: WHO screener for ADHD symptoms (patient self-report); assay type: in vivo; details: for WHO screener, score on the 6 screening items / WHO screener, score out of the total possible of 18: Example 5, combination: sertraline 50 mg per day and lamotrigine 200 mg per day
Experimental: Certain patients from the outpatient private psychiatric practice were retested after widely varying intervals as shown in the following Examples. Participation was completely voluntary and only allowed after the signing of a consent form. For the purpose of maintaining the privacy of the subject the lab work was performed confidentially (called blinding of the tester). Each patient was assigned an identification (ID) number and only the clinician had access to the key which correlated ID numbers with patient names. Because these were and are patients presenting for treatment, the priority has been their treatment. They have manifested all the typical variability found in clinical practice, and the resulting data points obtained are those possible under these circumstances. The paired MPR™ results are presented along with clinical vignettes. The patients with repeated tests are shown in example 1 and their vignettes are elucidated here. This clinical data and its interpretation provide the basis for the claims of the invention.

[4] = tested on: human patient; assay: Side effects reported by patients on medication; assay type: in vivo; details: for Side effects: Example 5, combination: sertraline 50 mg per day and lamotrigine 200 mg per day
[5] = Example 4, combination: escitalopram 10 mg per day, aripiperazole 2 mg per day, alprazolam 0.5 mg twice a day as needed, tapering from oxcarbazepine (A in FIG. 4)
[6] = Example 2, combination: dextroamphetamine sulfate 5 mg three times per day and extended release dexmethylphenidate 20 mg morning and afternoon (C in FIG. 2)
[7] = Example 5, combination: sertraline 50 mg per day and lamotrigine 200 mg per day (B in FIG. 5)
[8] = Example 3, person with BD, combination: lithium, quetiapine and mirtazapine (B in FIG. 3)
[9] = Example 1, combination: selegiline transdermal 12 mg per 24 hours and mixed amphetamine salts 15 mg per day

Molecule: Cc1nnc2n1-c1ccc(Cl)cc1C(c1ccccc1)=NC2 [alprazolam]
- MPR test range [1, 5]: bipolar transition range
- Clinical stabilization of Bipolar I Disorder [2]: not fully stabilized

Molecule: O=C1CCc2ccc(OCCCCN3CCN(c4cccc(Cl)c4Cl)CC3)cc2N1 [aripiperazole]
- MPR test range [1, 5]: bipolar transition range
- Clinical stabilization of Bipolar I Disorder [2]: not fully stabilized

Molecule: CC(NC(C)(C)C)C(=O)c1cccc(Cl)c1 (stereo not drawn) [bupropion]
- Clinical benefit by history ([2]; Example 5, earlier treatment, patient history): had not offered a benefit

Molecule: C[C@H](N)Cc1ccccc1 [dextroamphetamine sulfate]
- MPR test result range [1, 6]: ADHD transition range

Molecule: CN(C)CCC[C@@]1(c2ccc(F)cc2)OCc2cc(C#N)ccc21 [escitalopram]
- MPR test range [1, 5]: bipolar transition range

Molecule: COC(=O)[C@H](c1ccccc1)[C@H]1CCCCN1 [extended release dexmethylphenidate, dexmethylphenidate]
- MPR test result range [1, 6]: ADHD transition range
- Clinical benefit as reported by patient ([2]; Example 2, combination of dextroamphetamine and extended release dexmethylphenidate, compared with mixed amphetamine salts 40 mg): not working as well

Molecule: Nc1nnc(-c2cccc(Cl)c2Cl)c(N)n1 [lamotrigine]
- MPR result range [1, 7]: ADHD range
- WHO screener, score on the 6 screening items [3]: 0
- WHO screener, score out of the total possible of 18 [3]: 1
- Clinical benefit ([2]; Example 5, tapered up as per a starter pack, subject able to return to work): offered benefit quickly
- Side effects [4]: without complaint of side effects

Molecule: COC(=O)C(c1ccccc1)C1CCCCN1 (stereo not drawn) [methylphenidate]
- MPR value ([1]; 10 mg (FIG. 6)): close to the BD side of the negative range
- MPR value ([1]; dose reduced to 5 mg (FIG. 6)): moved up close to the right value
- Clinical effect on ADHD symptoms reported by subject ([2]; Example 4, 10 mg twice per day, later 10 mg three times per day, added to BD medication): benefit

Molecule: CN1CCN2c3ncccc3Cc3ccccc3C2C1 (stereo not drawn) [mirtazapine]
- MPR result range [1, 8]: negative (normal) range
- Outcome of trial of adding the drug (depression) ([2]; Example 1, added to mixed amphetamine salts): unsuccessful

Molecule: NC(=O)N1c2ccccc2CC(=O)c2ccccc21 [oxcarbazepine]
- Clinical stabilization of Bipolar I Disorder [2]: not fully stabilized

Molecule: OCCN1CCN(CCCN2c3ccccc3Sc3ccc(Cl)cc32)CC1 [perphenazine]
- Side effect leading to discontinuation ([4]; Example 3, very low dosage for neurotic anxiety): blurred vision

Molecule: OCCOCCN1CCN(C2=Nc3ccccc3Sc3ccccc32)CC1 [quetiapine]
- MPR result range [1, 8]: negative (normal) range
- MPR test range ([1]; Example 4, after addition of lithium 600 mg per day and Seroquel 100 mg at bedtime (B in FIG. 4)): ADHD range
- Mood stabilization ([2]; Example 4, addition of lithium 600 mg per day and Seroquel 100 mg at bedtime): further stabilized clinically

Molecule: C#CCN(C)[C@H](C)Cc1ccccc1 [selegiline transdermal, selegiline]
- WHO screener, positive items of the six items [3, 9]: 1

Molecule: CN[C@H]1CC[C@@H](c2ccc(Cl)c(Cl)c2)c2ccccc21 [sertraline]
- MPR result range [1, 7]: ADHD range
- MPR result range ([1]; Example 5, initial evaluation, subject on sertraline 100 mg at bedtime (A in FIG. 5)): BD transition range
- WHO screener, score on the 6 screening items [3]: 0
- WHO screener, score out of the total possible of 18 [3]: 1
- Clinical effect on depression according to the subject ([2]; Example 5, person, 100 mg at bedtime): no longer working
- Side effects [4]: without complaint of side effects

Molecule: mixed amphetamine salts
- MPR value range ([1]; Example 1, blood drawn third week after stopping mixed amphetamine salts (B in FIG. 1)): ADHD range
- MPR value range ([1]; Example 1, person, taking only mixed amphetamine salts (A in FIG. 1)): negative (normal) range
- MPR test result range ([1]; Example 2, 40 mg every morning, with lamotrigine for BD (B in FIG. 2)): negative range
- WHO screener, positive items of the six items [3, 9]: 1
- WHO screener, positive items of the 6 items ([3]; Example 1, taking only mixed amphetamine salts): 3
- WHO screener, positive items of the 6 items ([3]; Example 1, two weeks after stopping mixed amphetamine salts): 4
- WHO screener, positive items of the six items ([3]; Example 2, 40 mg every morning): two
- Symptomatic control of ADHD ([2]; Example 2, 40 mg every morning): good symptomatic control
